Measurements reported in US20210077420A1, “Methods of Treatment of Gout” (priority 2017, published 2021).

Legend:
Type in all cases: physicochemical
[1] = Solubility enhancement of MSU crystals in phosphate buffered saline (Examples 2A, 2B)
Description: A phosphate buffered saline diluent was prepared by dissolving 8.2 g of NaCl and 0.68 g of KH2PO4 in 500 mL of deionised water in a 1 L flask. An NaOH solution was prepared by dissolving 0.399 g of NaOH in 100 mL of deionised water. 39.1 mL of the 0.1 M NaOH solution was then added to the 1 L flask and the volume was made up to 1 L with deionised water. The pH was adjusted to 7.4.
Approximately 5 mg of monosodium urate crystals was then suspended in 4.75 mL of the phosphate buffered saline diluent. A 0.25 mL amount of a solubility enhancer was then added to the suspension of monosodium urate crystals. […] In the case of the solubility enhancer being a mix of components, equal portions by volume of each component was added, unless indicated otherwise. This was then stirred for about 16 hours.
A sample of the supernatant was then taken, filtered using standard techniques (e.g. a syringe filter), and analysed by high-performance liquid chromatography (HPLC) to determine the concentration of uric acid/urate present in solution.

[2] = as above; conditions: Table 3
[3] = Solubility enhancement of MSU crystals in aqueous NaCl solution (Example 1); conditions: 16 h; for % vs control: 2.5 mL enhancer + 2.5 mL NaCl solution, control (water only) = 100%; for Concentration of urate: 2.5 mL enhancer + 2.5 mL NaCl solution (8.2 g/L), about 8 mg MSU, 25 °C, mixes equal portions by volume, control 0.043
Description: A NaCl solution was prepared by dissolving 8.2 g of NaCl in 1 L of deionised water. Approximately 8 mg of monosodium urate crystals was then suspended in 2.5 mL of the NaCl solution. A 2.5 mL amount of a solubility enhancer was then added to the suspension of monosodium urate crystals. In the case of the solubility enhancer being a mix of components, equal portions by volume of each component was added. This was then mixed for about 16 hours on a roller mixer.
A sample of the supernatant was then taken, filtered using standard techniques (e.g. a syringe filter), and analysed by high-performance liquid chromatography (HPLC) to determine the concentration uric acid/MSU present in solution.
All samples were analysed using a HPLC system equipped with a variable wavelength UV detector and a reversed phase column (5 μm ODS2, 4.6 mm×150 mm, Waters Spherisorb). The mobile phase was 35 mM sodium acetate in water with pH adjusted to 5.0 using acetic acid. The flow rate was set at 1 mL/min and UV detection at a wavelength of 292 nm. Sample injection volume was 50.0 μL and all operations were carried out at 25° C. Standard solutions of MSU were made up in the range of 15-250 μg/mL and analysed as above.

[4] = Table 3, 5% by volume solubility enhancer in PBS
[5] = Table 2, 5% by volume solubility enhancer in PBS pH 7.4, control = 100%
[6] = 0.1% solubility enhancer in PBS

OCc1ccc(O)cc1 [4-hydroxybenzyl alcohol]
% vs control [1, 4]: 190% | % vs control ([2]; 1% solubility enhancer in PBS): 151%

CC(=O)OCC(COC(C)=O)OC(C)=O [Triacetin]
% vs control [1, 5]: 165% | % vs control [1, 4]: 113% | % vs control ([2]; 4% solubility enhancer in PBS): 111%

CC(O)CO (centres unmarked) [Propylene glycol]
% vs control [3]: 114% | % vs control [1, 5]: 114%

Sorbitan monooleate
Concentration of urate [3]: 65 µg/mL | % vs control [3]: 151%

CCCCCCCC/C=C\CCCCCCCC(=O)O [Oleic acid]
% vs control ([2]; 1% solubility enhancer in PBS): 118% | % vs control ([2]; 2% solubility enhancer in PBS): 119%

OCC(O)CO [Glycerol]
% vs control [3]: 149% | % vs control [1, 5]: 114%

OCc1ccccc1 [Benzyl alcohol]
% vs control [1, 5]: 263% | % vs control ([2]; 0.5% solubility enhancer in PBS): 152% | % vs control ([2]; 2% solubility enhancer in PBS): 170% | % vs control ([2]; 3% solubility enhancer in PBS): 197% | % vs control ([2]; 4% solubility enhancer in PBS): 227%

Span 85
Concentration of urate [3]: 57 µg/mL

CCCCCCCC/C=C\CCCCCCCC(=O)OC [Methyl oleate]
% vs control [1, 5]: 119%

O=C(O)c1ccc(O)cc1 [4-hydroxybenzoic acid]
% vs control [1, 4]: 241% | % vs control ([2]; 0.05% solubility enhancer in PBS): 160% | % vs control [2, 6]: 193% | % vs control ([2]; 1% solubility enhancer in PBS): 205%

CN1CCCC1=O [N-methylpyrrolidone]
% vs control [3]: 200%

O=C(O)c1ccccc1 [Benzoic acid]
% vs control [1, 4]: 189% | % vs control [2, 6]: 147% | % vs control ([2]; 1% solubility enhancer in PBS): 159%

CC(=O)OC/C=C(\C)CCC=C(C)C [Geranyl acetate]
% vs control [3]: 209%

OCCO [Ethylene glycol]
% vs control [1, 5]: 112%

O=C(O)c1ccccc1O [Salicylic acid]
% vs control [2, 6]: 281%

O=C(O)/C=C/C(=O)O [Fumaric acid]
% vs control [3]: 151%
